In experiment [1] the target is T1, Proteasome Macropain subunit MB1 (Homo sapiens, UniProt P28074).
T1 sequence (P28074 whole entry): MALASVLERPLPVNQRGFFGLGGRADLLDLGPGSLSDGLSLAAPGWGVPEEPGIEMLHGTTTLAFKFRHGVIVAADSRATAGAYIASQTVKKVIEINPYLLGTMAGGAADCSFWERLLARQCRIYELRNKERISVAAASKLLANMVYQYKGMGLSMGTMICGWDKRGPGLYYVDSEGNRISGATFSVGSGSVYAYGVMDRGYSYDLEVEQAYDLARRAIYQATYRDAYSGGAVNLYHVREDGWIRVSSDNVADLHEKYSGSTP
Description: Inhibition of human 20S proteasome beta5 subunit using Suc-LLVY-AMC as substrate preincubated for 2 hrs followed by substrate addition and measured after 1 hr by fluorescence intensity assay.

For experiment [2], the target named is T1, Proteasome Macropain subunit MB1. Put plainly: Inhibition of 20S proteasome beta5 subunit in human A549 cells using Suc-LLVY-luciferin substrate preincubated for 2 hrs followed by substrate addition and measured after 30 mins by luminometric analysis. In kind it is cell-based.
The species entered for experiment [3] is Homo sapiens. Description: Selectivity ratio of IC50 for inhibition of 20S proteasome beta5 subunit in human A549 cells to IC50 for inhibition of 20S immunoproteasome beta-5i subunit in human PBMC. In kind it is cell-based.
For experiment [4], the target named is T2, Proteasome subunit beta type-8 (Homo sapiens, UniProt P28062).
T2 sequence (P28062 whole entry): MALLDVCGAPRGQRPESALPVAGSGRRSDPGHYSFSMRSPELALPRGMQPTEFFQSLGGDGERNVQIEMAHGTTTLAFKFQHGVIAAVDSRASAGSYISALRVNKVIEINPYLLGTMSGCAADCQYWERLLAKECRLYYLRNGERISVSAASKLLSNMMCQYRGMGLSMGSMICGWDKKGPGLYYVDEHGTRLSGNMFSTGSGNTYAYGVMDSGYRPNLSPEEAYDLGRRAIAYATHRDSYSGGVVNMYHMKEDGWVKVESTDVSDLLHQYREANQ
Put plainly: Inhibition of 20S immunoproteasome beta-5i subunit in human PBMC using Ac-ANW-luciferin substrate preincubated for 2 hrs followed by substrate addition and measured after 30 mins by luminometric analysis. In kind it is cell-based.

Experiment [5] addresses T2, Proteasome subunit beta type-8. Description: Inhibition of human 20S immunoproteasome beta-5i subunit using Suc-LLVY-AMC as substrate preincubated for 2 hrs followed by substrate addition and measured after 1 hr by fluorescence intensity assay.
The species entered for experiment [6] is Homo sapiens. Put plainly: Selectivity ratio of IC50 for inhibition of human 20S proteasome beta5 subunit to IC50 for inhibition of human 20S immunoproteasome beta-5i subunit.

With `N#Cc1ccccc1CC(=O)N[C@@H](C[C@@H]1COc2c(Cl)cccc21)B(O)O`, the IC50 in experiment [1] is 7400 nM; in experiment [2] it was 20900 nM; in experiment [4] it was 51 nM; in experiment [5] it was 2.9 nM. Also, the figures for the Ratio IC50 in the experiment filed under Homo sapiens [3] and in the experiment filed under Homo sapiens [6] were 406 and 2570, respectively.

As to `O=C(Cc1cccnc1)N[C@@H](Cc1coc2ccccc12)B(O)O`, the IC50 is 540 nM in experiment [1], 646 nM in experiment [2], 24.7 nM in experiment [4] and 2.3 nM in experiment [5]. Besides, the figures for the Ratio IC50 in the experiment listed under Homo sapiens [3] and in the experiment listed under Homo sapiens [6] were 26 and 232, respectively.

On to `CC(C)C[C@H](NC(=O)Cc1ccccc1)B(O)O`, for which the IC50 in experiment [1] was determined as 15000 nM; in experiment [2], 7000 nM; in experiment [4], 3300 nM; in experiment [5], 1000 nM. Moreover, the Ratio IC50 in the experiment filed under Homo sapiens [3] worked out at 2.1; in the experiment listed under Homo sapiens [6], 15.

With `COCC(=O)N[C@@H](Cc1coc2ccccc12)B(O)O`, the IC50 in experiment [1] worked out at 820 nM; in experiment [2], 520 nM; in experiment [4], 26.7 nM; in experiment [5], 6 nM. In addition, the Ratio IC50 in the experiment filed under Homo sapiens [3] was determined as 20; in the experiment listed under Homo sapiens [6] it was 137.

With `O=C(Cn1cccn1)N[C@@H](Cc1coc2ccccc12)B(O)O`, the IC50 in experiment [1] is 770 nM; in experiment [2], 894 nM; in experiment [4] it was 31 nM; in experiment [5], 3.7 nM. Also, the values for the Ratio IC50 in the experiment listed under Homo sapiens [3] and in the experiment listed under Homo sapiens [6] were 29 and 212, respectively.

Consider `Cc1cccc2c1OC[C@H]2C[C@H](NC(=O)Cc1ccccc1C#N)B(O)O`, for which the IC50 was 14000 nM in experiment [1], over 30000 nM in experiment [2], 60 nM in experiment [4] and 4.4 nM in experiment [5]. For the same compound, the Ratio IC50 is over 496 in the experiment listed under Homo sapiens [3] and 3150 in the experiment filed under Homo sapiens [6].

`O=C(Cc1ccccc1)N[C@@H](C[C@H]1COc2c(Cl)cccc21)B(O)O`: the half-maximal inhibitory concentration (IC50) in experiment [1] was over 30000 nM; in experiment [2], over 30000 nM; in experiment [4], 9670 nM; in experiment [5], 610 nM. For the same compound, the Ratio IC50 in the experiment filed under Homo sapiens [6] is over 49.

`Cc1cccc2c(C[C@H](NC(=O)Cc3ccccc3)B(O)O)coc12`: the IC50 in experiment [1] turned out to be 1200 nM; in experiment [2], 2100 nM; in experiment [4], 29 nM; in experiment [5] it was 4.5 nM. In addition, the Ratio IC50 turned out to be 71 in the experiment listed under Homo sapiens [3] and 276 in the experiment listed under Homo sapiens [6].

In the case of `O=C(Cc1ccncc1)N[C@@H](Cc1coc2ccccc12)B(O)O`, the IC50 amounted to 2300 nM in experiment [1], 2540 nM in experiment [2], 71 nM in experiment [4] and 11 nM in experiment [5]. Also, the Ratio IC50 in the experiment filed under Homo sapiens [3] is 36; in the experiment filed under Homo sapiens [6] it was 222.

Turning to `O=C(Cc1ccccc1)N[C@@H](Cc1ccc(Cl)cc1)B(O)O`, the IC50 in experiment [1] turned out to be 5600 nM; in experiment [2] it was 8750 nM; in experiment [4] it was 983 nM; in experiment [5], 38 nM. Also, the Ratio IC50 was found to be 8.9 in the experiment listed under Homo sapiens [3] and 148 in the experiment filed under Homo sapiens [6].

With `CC(=O)N[C@@H](Cc1coc2ccccc12)B(O)O`, the IC50 in experiment [1] stood at 1400 nM; in experiment [2], 420 nM; in experiment [4] it was 27.1 nM; in experiment [5], 18 nM. Besides, the Ratio IC50 in the experiment listed under Homo sapiens [3] was 16; in the experiment filed under Homo sapiens [6], 70.

As to `O=C(N[C@@H](Cc1coc2ccccc12)B(O)O)[C@@H]1C[C@@H]2CC[C@H]1O2`, the IC50 stood at 15000 nM in experiment [1] and 89 nM in experiment [5]. Further, the Ratio IC50 in the experiment listed under Homo sapiens [6] worked out at 173.

Regarding `O=C(Cc1ccccc1)N[C@@H](Cc1c(Cl)oc2ccccc12)B(O)O`, the IC50 in experiment [1] amounted to 20000 nM; in experiment [2] it was 16500 nM; in experiment [4], 824 nM; in experiment [5] it was 200 nM. Moreover, the Ratio IC50 in the experiment listed under Homo sapiens [6] was determined as 104.

For `O=C(Cc1ccccc1)N[C@@H](Cc1coc2c(F)cccc12)B(O)O`, the IC50 in experiment [1] was 530 nM; in experiment [2], 785 nM; in experiment [4], 22.8 nM; in experiment [5], 3.1 nM. Besides, the Ratio IC50 was 34 in the experiment filed under Homo sapiens [3] and 168 in the experiment filed under Homo sapiens [6].

Consider `O=C(Cc1ccccc1)N[C@@H](C[C@@H]1COc2c(Cl)cccc21)B(O)O`, for which the IC50 amounted to 2900 nM in experiment [1], 6100 nM in experiment [2], 25 nM in experiment [4] and 1.8 nM in experiment [5]. In addition, the Ratio IC50 in the experiment filed under Homo sapiens [3] amounted to 243; in the experiment listed under Homo sapiens [6] it was 1620.

As to `O=C(Cc1ccccc1)N[C@@H](Cc1coc2c(Cl)cccc12)B(O)O`, the half-inhibitory concentration (IC50) in experiment [1] was found to be 860 nM; in experiment [2], 2060 nM; in experiment [4] it was 41.5 nM; in experiment [5], 4.1 nM. Further, the Ratio IC50 came out at 49 in the experiment listed under Homo sapiens [3] and 210 in the experiment filed under Homo sapiens [6].

Turning to `O=C(Cc1ncccn1)N[C@@H](Cc1coc2ccccc12)B(O)O`, the IC50 in experiment [1] was 230 nM; in experiment [2] it was 204 nM; in experiment [4], 15.5 nM; in experiment [5], 2.3 nM. The Ratio IC50 worked out at 13 in the experiment listed under Homo sapiens [3] and 101 in the experiment filed under Homo sapiens [6].

Take `COCCC(=O)N[C@@H](Cc1coc2ccccc12)B(O)O`: the IC50 is 400 nM in experiment [1], 241 nM in experiment [2], 10.6 nM in experiment [4] and 1.9 nM in experiment [5]. For the same compound, the figures for the Ratio IC50 in the experiment listed under Homo sapiens [3] and in the experiment listed under Homo sapiens [6] were 23 and 205, respectively.

As for `O=C(Cc1cnccn1)N[C@@H](Cc1coc2ccccc12)B(O)O`, the IC50 was found to be 410 nM in experiment [1], 328 nM in experiment [2], 18 nM in experiment [4] and 1.9 nM in experiment [5]. For the same compound, the Ratio IC50 is 18 in the experiment filed under Homo sapiens [3] and 212 in the experiment filed under Homo sapiens [6].

Consider `COc1cccc2c(C[C@H](NC(=O)Cc3ccccc3)B(O)O)coc12`, for which the IC50 stood at 140 nM in experiment [1], 222 nM in experiment [2], 8.9 nM in experiment [4] and 2.2 nM in experiment [5]. The Ratio IC50 in the experiment filed under Homo sapiens [3] is 24; in the experiment filed under Homo sapiens [6] it was 63.

For `Cc1c(Cl)ccc2c(C[C@H](NC(=O)Cc3ccccc3)B(O)O)coc12`, the IC50 in experiment [1] worked out at 1700 nM; in experiment [2] it was 7320 nM; in experiment [4] it was 164 nM; in experiment [5], 6.4 nM. The Ratio IC50 in the experiment filed under Homo sapiens [3] was found to be 44; in the experiment listed under Homo sapiens [6], 272.

For `Cc1cccc2c1OC[C@H]2C[C@H](NC(=O)Cc1ccccc1)B(O)O`, the IC50 in experiment [1] worked out at 7200 nM; in experiment [2], 14000 nM; in experiment [4], 53 nM; in experiment [5], 3.1 nM. For the same compound, the Ratio IC50 in the experiment filed under Homo sapiens [3] is 262; in the experiment listed under Homo sapiens [6], 2330.

Take `Cc1ccc(C[C@H](NC(=O)Cc2ccccc2)B(O)O)cc1`: the IC50 in experiment [1] is 6300 nM; in experiment [2] it was 6290 nM; in experiment [4] it was 438 nM; in experiment [5], 91 nM. Moreover, the Ratio IC50 in the experiment filed under Homo sapiens [3] turned out to be 14; in the experiment filed under Homo sapiens [6] it was 69.

Consider `Cc1ccc(C[C@H](NC(=O)Cc2ccccc2)B(O)O)cc1C`, for which the IC50 in experiment [1] came out at 15000 nM; in experiment [2], 24500 nM; in experiment [4], 434 nM; in experiment [5], 85 nM. Also, the Ratio IC50 in the experiment filed under Homo sapiens [3] was found to be 56; in the experiment filed under Homo sapiens [6], 182.

As for `O=C(Cc1ccccc1)N[C@@H](Cc1ccccc1)B(O)O`, the IC50 in experiment [1] is 16000 nM; in experiment [2] it was 9560 nM; in experiment [4], 643 nM; in experiment [5] it was 160 nM. The Ratio IC50 in the experiment listed under Homo sapiens [3] came to 15; in the experiment listed under Homo sapiens [6], 99.

Take `O=C(Cc1ccccc1)N[C@@H](Cc1cc2ccccc2o1)B(O)O`: the IC50 in experiment [1] was 5000 nM; in experiment [2], 10100 nM; in experiment [4] it was 824 nM; in experiment [5] it was 29 nM. In addition, the values for the Ratio IC50 in the experiment filed under Homo sapiens [3] and in the experiment filed under Homo sapiens [6] were 12 and 172, respectively.

Turning to `Cc1ccc(C[C@H](NC(=O)Cc2ccccc2)B(O)O)c(C)c1`, the half-inhibitory concentration (IC50) was 26000 nM in experiment [1], over 30000 nM in experiment [2], 896 nM in experiment [4] and 130 nM in experiment [5]. The values for the Ratio IC50 in the experiment filed under Homo sapiens [3] and in the experiment filed under Homo sapiens [6] were over 33 and 194, respectively.

For `O=C(N[C@@H](Cc1coc2ccccc12)B(O)O)[C@H]1C[C@H]2CC[C@@H]1O2`, the IC50 in experiment [1] was over 30000 nM; in experiment [5], 140 nM. For the same compound, the Ratio IC50 in the experiment filed under Homo sapiens [6] was over 210.

Turning to `Cc1ccc(C[C@@H](NC(=O)Cc2ccccc2)B(O)O)cc1C`, the IC50 was over 30000 nM in experiment [1], 5900 nM in experiment [2], 1410 nM in experiment [4] and 1200 nM in experiment [5]. In addition, the Ratio IC50 in the experiment filed under Homo sapiens [3] was 4.2; in the experiment listed under Homo sapiens [6] it was over 25.

As to `N#Cc1ccccc1CC(=O)N[C@@H](Cc1coc2ccccc12)B(O)O`, the IC50 came out at 1700 nM in experiment [1], 2220 nM in experiment [2], 42 nM in experiment [4] and 5.2 nM in experiment [5]. The Ratio IC50 in the experiment listed under Homo sapiens [3] was found to be 52; in the experiment listed under Homo sapiens [6], 334.

These data come from ChEMBL document CHEMBL5149996, “Structure-Based Optimization and Discovery of M3258, a Specific Inhibitor of the Immunoproteasome Subunit LMP7 (β5i)” (J Med Chem, 2021).
